Calls of active or inactive are those of the source. The calls are words filed in the database; no cut-off is given here.
Experiments:
[1] = target: T1, Protein cereblon/Androgen receptor (Homo sapiens) (UniProt P10275+Q96SW2); experiment: PROTAC activity at Influenza A virus A/WSN/33(H1N1) flag tagged Polymerase acidic protein/CRBN (unknown origin) expressed in HEK293T cells assessed as degradation of PA expression at 10 uM incubated for 16 hrs by Western blotting analysis; type: cell-based
[2] = target: T1, Protein cereblon/Androgen receptor (Homo sapiens); experiment: PROTAC activity at Influenza A virus A/WSN/33(H1N1) flag tagged Polymerase acidic protein/CRBN (unknown origin) expressed in HEK293T cells assessed as degradation of PA expression at 5 uM incubated for 24 hrs by Western blotting analysis; type: cell-based
Influenza A virus [3] = experiment: Anti-influenza activity against Influenza A virus A/WSN/33(H1N1) infected in HEK293T cells assessed as reduction in virus-induced cytopathic effect incubated for 48 hrs by CCK-8 assay; type: functional, organism-based; conditions: HEK-293T
Influenza A virus [4] = experiment: Anti-influenza activity against Influenza A virus A/PR/8/34 (H1N1) infected in MDCK cells assessed as inhibition of viral growth at 100 uM incubated for 48 hrs by luciferase assay relative to control; type: functional
[5] = Selectivity index, ratio of CC50 for cytotoxicity against human HEK293T cells to EC50 for anti-influenza activity against Influenza A virus A/WSN/33(H1N1) infected in HEK293T cells assessed as reduction in virus-induced cytopathic effect; type: toxicity, cell-based; conditions: read-out: Ratio CC50/EC50
[6] = Cytotoxicity against human HEK293T cells assessed as reduction in cell viability incubated for 48 hrs by CCK-8 assay; type: toxicity, cell-based, HEK-293T
Influenza A virus [7] = experiment: Anti-influenza activity against Influenza A virus A/WSN/33(H1N1) infected in MDCK cells assessed as downregulation of nucleoprotein expression at 100 nM incubated for 24 hrs by Western blotting analysis relative to control; type: functional
[8] = Cytotoxicity against dog MDCK cells assessed as reduction in cell viability incubated for 48 hrs by CCK-8 assay; type: toxicity, cell-based, Canis lupus familiaris

T1 sequence (P10275 whole entry, looked up): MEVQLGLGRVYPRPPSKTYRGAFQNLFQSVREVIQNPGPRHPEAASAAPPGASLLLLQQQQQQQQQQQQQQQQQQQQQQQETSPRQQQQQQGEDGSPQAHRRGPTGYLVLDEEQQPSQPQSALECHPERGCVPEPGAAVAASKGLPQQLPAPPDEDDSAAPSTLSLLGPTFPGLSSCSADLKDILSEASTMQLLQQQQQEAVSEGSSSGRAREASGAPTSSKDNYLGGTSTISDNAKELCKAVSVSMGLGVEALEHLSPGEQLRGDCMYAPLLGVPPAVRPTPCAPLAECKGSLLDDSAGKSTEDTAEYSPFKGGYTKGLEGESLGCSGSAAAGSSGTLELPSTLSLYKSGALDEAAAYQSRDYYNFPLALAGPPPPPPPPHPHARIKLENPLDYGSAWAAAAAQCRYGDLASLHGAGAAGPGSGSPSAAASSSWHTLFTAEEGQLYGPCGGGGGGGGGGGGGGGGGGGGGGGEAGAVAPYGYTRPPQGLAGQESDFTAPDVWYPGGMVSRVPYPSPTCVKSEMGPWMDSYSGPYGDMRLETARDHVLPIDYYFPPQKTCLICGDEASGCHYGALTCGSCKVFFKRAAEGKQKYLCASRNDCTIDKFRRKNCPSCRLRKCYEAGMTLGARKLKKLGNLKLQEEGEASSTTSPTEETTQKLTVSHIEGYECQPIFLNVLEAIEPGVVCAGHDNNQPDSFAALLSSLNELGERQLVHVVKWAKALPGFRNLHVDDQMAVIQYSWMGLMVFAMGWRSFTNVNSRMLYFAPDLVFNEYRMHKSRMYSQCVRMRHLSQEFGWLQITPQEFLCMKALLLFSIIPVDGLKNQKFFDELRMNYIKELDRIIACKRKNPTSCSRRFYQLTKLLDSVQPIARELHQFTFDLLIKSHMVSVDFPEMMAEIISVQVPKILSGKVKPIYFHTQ
T1 sequence (Q96SW2 whole entry, looked up): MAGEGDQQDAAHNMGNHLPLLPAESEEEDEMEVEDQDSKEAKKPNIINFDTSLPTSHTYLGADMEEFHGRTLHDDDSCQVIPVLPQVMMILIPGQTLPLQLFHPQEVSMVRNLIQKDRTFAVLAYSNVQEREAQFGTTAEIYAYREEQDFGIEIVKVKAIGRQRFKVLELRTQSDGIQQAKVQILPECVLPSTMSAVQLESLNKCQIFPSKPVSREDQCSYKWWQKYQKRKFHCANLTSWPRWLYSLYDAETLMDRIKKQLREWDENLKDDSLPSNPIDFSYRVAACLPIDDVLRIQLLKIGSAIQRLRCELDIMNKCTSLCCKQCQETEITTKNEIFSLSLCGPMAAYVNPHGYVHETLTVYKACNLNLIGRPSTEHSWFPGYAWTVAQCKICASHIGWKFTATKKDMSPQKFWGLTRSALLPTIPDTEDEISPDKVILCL

Compound | Activity [1] | Activity [2] | EC50 (Influenza A virus [3]) [µM] | inhibition at 100 µM (Influenza A virus [4]) [%] | selectivity ratio [5] | CC50 at 48 h [6] [µM] | Activity (Influenza A virus [7]) [%] | CC50 at 48 h [8] [µM]
CC(C)(C)c1ccc(C(=O)NC(=S)Nc2ccc(NC(=O)CCCCCCCNc3cccc4c3CN(C3CCC(=O)NC3=O)C4=O)cc2)cc1 (centres undefined) | Active | Active | > 10 |  |  |  |  | 
NC12CC3CC(CC(C3)C1)C2 [AMANTADINE] |  |  | 1.79 | 62.3 | > 55.9 | > 100 |  | 
CCOC(=O)C1=C[C@@H](OC(CC)CC)[C@H](NC(C)=O)[C@@H](N)C1 [OSELTAMIVIR] |  |  |  |  |  |  | 44 | > 200
